Reference: patent publication US9980943B2, “Methods of treating muscular dystrophy” (BOARD OF REGENTS OF THE NEVADA SYSTEM OF HIGHER EDUCATION, …, priority 2013, dated 2018)

Tests used:
Assay type in all cases: cell-based, mouse
[1] = tested on: β-galactosidase in CMV-LacZ C2C12 myoblasts; test: CMV-LacZ secondary screen in C2C12 myoblasts (β-Gal stabilizing assay); conditions: CMV-LacZ C2C12 myoblasts
Outline: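 C2C12 myoblasts stably carrying a linearized CMV-driven LacZ construct, clone chosen by β-gal level in the myoblast FDG assay. Compounds tested in 96-well dose-response at 0.5, 1, 5, 10, 20 and 40 μM, N=2 replicates per point, to detect β-gal stabilization.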

[2] = tested on: α7 integrin (LacZ reporter in α7+/LacZ myotubes); test: Myotube α7 integrin FDG assay (Burkin assay in myotubes, 96-well); conditions: myotubes
[3] = tested on: β-galactosidase in CMV-LacZ C2C12 myotubes; test: CMV-LacZ secondary screen in C2C12 myotubes (β-Gal stabilizing assay); conditions: C2C12 CMV-LacZ myotubes, fold relative to DMSO
Outline: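 First, C2C12 myoblasts were transfected with a linearized CMV-LACZ vector and clonal lines selected by FDG β-gal assay. Then cells were exposed to compounds at 0.5, 1, 5, 10, 20 and 40 μM in 96-well format, two replicates each, and β-gal measured.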

[4] = tested on: α7 integrin (LacZ reporter in α7βgal+/− myoblasts); test: Myoblast α7+/LacZ integrin FDG assay (Burkin assay in myoblasts, 96-well); conditions: α7+/LacZ myoblasts, 96-well

Row | SMILES | CMV-LACZ in Myoblasts (β-galactosidase activity relative to DMSO) ([1]; 0.5 uM) | CMV-LACZ in Myoblasts (β-galactosidase activity relative to DMSO) ([1]; 1 uM) | CMV-LACZ in Myoblasts (β-galactosidase activity relative to DMSO) ([1]; 5 uM) | CMV-LACZ in Myoblasts (β-galactosidase activity relative to DMSO) ([1]; 10 uM) | CMV-LACZ in Myoblasts (β-galactosidase activity relative to DMSO) ([1]; 20 uM) | CMV-LACZ in Myoblasts (β-galactosidase activity relative to DMSO) ([1]; 40 uM) | Burkin Assay in Myotubes, α7 integrin LacZ reporter signal relative to DMSO ([2]; 0.5 uM) | Burkin Assay in Myotubes, α7 integrin LacZ reporter signal relative to DMSO ([2]; 1 uM) | Burkin Assay in Myotubes, α7 integrin LacZ reporter signal relative to DMSO ([2]; 5 uM) | Burkin Assay in Myotubes, α7 integrin LacZ reporter signal relative to DMSO ([2]; 10 uM) | Burkin Assay in Myotubes, α7 integrin LacZ reporter signal relative to DMSO ([2]; 20 uM) | Burkin Assay in Myotubes, α7 integrin LacZ reporter signal relative to DMSO ([2]; 40 uM) | CMV-LACZ in Myotubes, signal relative to DMSO ([3]; 0.5 uM) | CMV-LACZ in Myotubes, signal relative to DMSO ([3]; 1 uM) | CMV-LACZ in Myotubes, signal relative to DMSO ([3]; 5 uM) | CMV-LACZ in Myotubes, signal relative to DMSO ([3]; 10 uM) | CMV-LACZ in Myotubes, signal relative to DMSO ([3]; 20 uM) | CMV-LACZ in Myotubes, signal relative to DMSO ([3]; 40 uM) | Burkin Assay in Myoblasts, signal relative to DMSO ([4]; 0.5 uM) | Burkin Assay in Myoblasts, signal relative to DMSO ([4]; 1 uM) | other results
1 | CCn1c(=O)c2cc(C(=O)N(C)c3cc(C)ccc3OC)sc2c2ccccc21 [MLS000731285-01] | 1.1747 | 1.0853 | 1.0851 | 0.8436 | 0.9582 | 0.6572 | 0.8544 | 0.961 | 0.8695 | 0.9409 | 0.69 | 0.1953 | 1.2048 | 1.0562 | 1.4794 | 1.3012 | 1.0310 | 0.6450 | 1.064 | 0.9235 | Burkin Assay in Myoblasts, signal relative to DMSO ([4]; 5 uM): 0.7727; Burkin Assay in Myoblasts, signal relative to DMSO ([4]; 10 uM): 0.7344; Burkin Assay in Myoblasts, signal relative to DMSO ([4]; 20 uM): 0.604; Burkin Assay in Myoblasts, signal relative to DMSO ([4]; 40 uM): 0.6077
2 | Cn1cc(CN(CCO)Cc2cccs2)c(-c2ccccc2F)n1 [MLS000732652-01] | 0.6700 | 0.7744 | 1.1327 | 1.1235 | 0.9374 | 0.7856 | 1.092 | 1.116 | 1.1938 | 1.141 | 0.6797 | 0.7309 | 1.1615 | 0.8859 | 1.0614 | 1.0697 | 0.8518 | 1.0329 | 1.176 | 1.191 | Burkin Assay in Myoblasts, signal relative to DMSO ([4]; 5 uM): 0.972; Burkin Assay in Myoblasts, signal relative to DMSO ([4]; 10 uM): 1.2648; Burkin Assay in Myoblasts, signal relative to DMSO ([4]; 20 uM): 1.0346; Burkin Assay in Myoblasts, signal relative to DMSO ([4]; 40 uM): 0.8792
3 | COc1ccc(CN2CCNC(=O)C2CC(=O)NCCc2c[nH]c3ccccc23)c(OC)c1 (stereo not drawn) [MLS000734270-01] | 0.9296 | 0.8379 | 0.9337 | 0.9468 | 1.0122 | 0.9548 | 0.941 | 0.8975 | 1.083 | 0.9081 | 0.8558 | 0.8102 | 1.0019 | 1.0038 | 1.1042 | 1.0885 | 1.1158 | 0.9095 | 1.0135 | 1.048 | Burkin Assay in Myoblasts, signal relative to DMSO ([4]; 5 uM): 1.21; Burkin Assay in Myoblasts, signal relative to DMSO ([4]; 10 uM): 0.955; Burkin Assay in Myoblasts, signal relative to DMSO ([4]; 20 uM): 0.9739; Burkin Assay in Myoblasts, signal relative to DMSO ([4]; 40 uM): 0.9873
